Data taken from patent EP0888346B1, “CORALYNE ANALOGS AS TOPOISOMERASE INHIBITORS” (RUTGERS, THE STATE UNIVERSITY OF NEW JERSEY, priority 1996, dated 1997).
pIC50: −log10 of the molar value. Where “and” joins values, the source holds several entries; their conditions need not be identical. Identical values can stand only once. Like-named read-outs stand apart in the source and are kept apart here.

Key:
[1] = system: calf thymus topoisomerase II; assay: Topo II cleavage assay (plasmid YEpG DNA); format: biochemical; details: concentration relative to VM-26 = 1 producing the same cleavage on the plasmid DNA
Source text: The plasmid pET11a and the E. coli strain BL21(DE3) used for enzyme expression were purchased from Novagen. IPTG was purchased from Sigma. The ECL system used for the Western blotting analysis of bacterial lysates was from Amersham (UK). All the restriction enzymes and Vent polymerase were from New England Biolabs. Mammalian topoisomerase II was isolated from calf thymus glands according to the published procedure (Halligan et al., J. Biol. Chem. 260:2475-2482 (1985)). The single copy yeast plasmids YCpGAL1 expressing various topoisomerase I genes in JN2-134 yeast strain were a kind gift of Dr. M-A. Bjornsti (Thomas Jefferson University, Philadelphia, PA). All bacterial and yeast media were from Difco (Detroit, MI), while cell culture media were purchased from Gibco-BRL (Gaithersburg, MD).
(§1) Cleavage assays for the recombinant topoisomerases I and calf thymus topoisomerases I and II were done as described (Liu et al., J. Biol. Chem. 258:15365-15370 (1983)). The plasmid YEpG DNA used for the cleavage assays was prepared and labeled at its 3'-end using the published procedures.

[2] = system: Human lymphoblast RPMI 8402 cells; assay: MTT-microtiter plate tetrazolinium cytotoxicity assay (MTA); format: cell-based
Source text: The results were plotted and the IC50 then measured.

human topoisomerase I = target: T1, human topoisomerase I (Homo sapiens, UniProt P11387); assay: Topo I cleavage assay (plasmid YEpG DNA); format: biochemical; details: for Topo I-mediated DNA cleavage (REC, Relative Effective Concentration): concentration relative to camptothecin (CPT) = 1 producing the same cleavage on the plasmid DNA
T1 construct: 15 amino acid vector-derived fusion (pET-11a leader); made in house; host or cells: E. coli BL21(DE3)
T1 sequence (P11387 1-765): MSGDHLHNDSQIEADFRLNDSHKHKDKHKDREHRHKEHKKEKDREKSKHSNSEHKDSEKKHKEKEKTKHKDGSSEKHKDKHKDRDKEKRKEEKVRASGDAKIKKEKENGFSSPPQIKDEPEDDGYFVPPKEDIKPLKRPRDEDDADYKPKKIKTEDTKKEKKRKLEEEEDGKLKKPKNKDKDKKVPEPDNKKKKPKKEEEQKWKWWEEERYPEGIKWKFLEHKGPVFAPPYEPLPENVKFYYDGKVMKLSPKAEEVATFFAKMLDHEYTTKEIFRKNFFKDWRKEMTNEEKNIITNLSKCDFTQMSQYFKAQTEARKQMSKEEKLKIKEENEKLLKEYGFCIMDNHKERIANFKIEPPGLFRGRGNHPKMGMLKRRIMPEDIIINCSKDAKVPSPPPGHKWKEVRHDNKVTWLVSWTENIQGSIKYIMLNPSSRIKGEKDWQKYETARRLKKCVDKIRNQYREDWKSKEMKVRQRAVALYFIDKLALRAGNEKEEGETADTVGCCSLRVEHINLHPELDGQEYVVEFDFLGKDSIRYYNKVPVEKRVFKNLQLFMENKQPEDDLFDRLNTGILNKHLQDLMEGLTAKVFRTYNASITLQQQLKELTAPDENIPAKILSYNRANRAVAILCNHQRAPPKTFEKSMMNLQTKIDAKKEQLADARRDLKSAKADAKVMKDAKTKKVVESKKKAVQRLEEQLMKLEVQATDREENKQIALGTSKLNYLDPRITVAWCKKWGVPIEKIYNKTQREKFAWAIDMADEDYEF
Source text: To obtain large quantity of human topoisomerase I, the human topoisomerase I cDNA was cloned into the pET-11a vector, in which transcription of the cDNA is under the control of the inducible T7 promoter (Studier et al., Methods in Enzymol., Vol. 185:60-89, San Diego: Academic Press (1990)). Briefly, a 3.4 kb DNA fragment containing the entire coding sequence of human topoisomerase I and approximately 1 kb of untranslated region downstream of the stop codon was isolated from the plasmid YCpGAL1-hTOP1 (Bjornsti et al., Cancer Res. 49:6318-6323 (1989)) by cutting at the BamHI and EcoRI sites. The vector pET-11a was cut with the same restriction enzymes, dephosphorylated and ligated to the insert in the proper reading-frame downstream of the vector cloning site. The ligation mixture was used to transform E. coli, the correct clone pET1B was isolated (see figure 2A for the map) and its identity confirmed by restriction mapping. Since the translational start in pET is positioned at an upstream NdeI site, the expressed topoisomerase I has a 15 amino acid fusion at its N-terminus. pET1B was then transformed into E. coli BL21(DE3), and, upon induction with 0.4 mM IPTG for 1 hour, the bacterial lysate was analyzed by 10 % SDS-PAGE. Expression was confirmed by Western blotting using rabbit antibodies against human topoisomerase I. Isolation of the expressed protein was done by a simple procedure. Briefly, E. coli cells were lysed by repeated sonic bursts. The sonic extract was made in 1 M NaCl and 6% polyethylene glycol (PEG) to remove nucleic acids. The PEG supernatant was chromatographed directly on a hydroxyapatite column. Expressed human DNA topoisomerase I was eluted at the 0.6 M potassium phosphate step. The eluted enzyme was dialyzed against 50% glycerol, 30 mM potassium phosphate (pH 7.0), 1 mM dithiothreitol (DTT) and 0.1 mM EDTA and stored at -20°C.
as §1

[3] = system: camptothecin-resistant CPT-K5 cells; assay: MTT-microtiter plate tetrazolinium cytotoxicity assay (MTA), camptothecin-resistant cells
Procedure: The IC50 of the drugs tested were determined by the MTT-microtiter plate tetrazolinium cytotoxicity assay (MTA) (Mosmann, T., J. Immunol. Methods 65:55-63 (1983); Denizot et al., J. Immunol. Methods 89:271-277 (1986)). Human lymphoblast RPMI 8402 cells and their camptothecin-resistant CPT-K5 cells (Andoh et al., Proc. Natl. Acad. Sci., USA 84:5565-5569 (1987)) were kindly provided by Dr. Toshiwo Andoh (Aichi Cancer Center Research Institute, Nagoya, Japan). […] Cells (2000 cells/well, seeded in […] growth medium) were grown in suspension at 37°C in 5% CO2 and maintained by regular passage in RPMI medium supplemented with 10% heat inactivated fetal bovine serum, L-glutamine (2 mM), penicillin (100 U/ml), and streptomycin (0.1 mg/ml). The cells were exposed continuously for 4 days to different drug concentrations, and assayed at the end of the fourth day. Each concentration and the no drug control were repeated at least twice in 6 replica wells. The results were plotted and the IC50 then measured. The drug sensitive human epidermoid carcinoma KB 3-1 cell line and its vinblastine-selected multidrug-resistant variant KB-V1 cells (Akiyama et al., Genetics 11:117-126 (1985)) were kindly provided by Dr. Michael Gottesmann (National Cancer Institute). They were grown as monolayer cultures at 37°C in 5% CO2 and maintained by regular passage in Dulbecco's minimal essential medium supplemented with 10% heat inactivated fetal bovine serum. KB-V1 cells were maintained in the presence of […] vinblastine.

[4] = Homo sapiens, RPMI 8402, 96 h, read-out: Cytotoxicity IC50 RPMI
[5] = Homo sapiens, CPT-K5, 96 h, read-out: Cytotoxicity IC50 CPT-K5

Compound	Topo I-mediated DNA cleavage (REC, Relative Effective Concentration) (human topoisomerase I)	EC (total cleavage) (human topoisomerase I; read-out: concentration giving total cleavage of DNA in the presence of topoisomerase I)	Topo II-mediated DNA cleavage (REC, Relative Effective Concentration) [1]	pIC50 [2, 4]	pIC50 [3, 5]	cytotoxicity against RPMI 8402 cells (in words) [2]	pIC50 ([2]; rpmi 8402 cells, 96 h)	pIC50 ([3]; cpt-k5 cells, 96 h)
COc1ccc(Cc2nccc3c(OC)c(OC)ccc23)cc1OC.Cl [Compound 9b, 5,6-Dimethoxy-1-(3,4-dimethoxybenzyl)isoquinoline hydrochloride]	>1000		1000	4.82	4.82			
COc1cc2c(cc1OC)-c1cc3cc(OC)c(OC)cc3c[n+]1CC2.[Cl-] [Compound 8a, 5,6-Dihydro-2,3,10,11-tetramethoxydibenzo[a,g]quinolizinium chloride]	20		>1000	5.00	4.74			
COc1cc2cc3[n+](cc2cc1OC)CCc1c-3ccc(OC)c1OC.[Cl-] [Compound 8b, 5,6-Dihydro-3,4,10,11-tetramethoxydibenzo[a,g]quinolizinium chloride]	>1000		1000	5.05	5.19			
COc1cc2cc3c4ccc5c(c4cc[n+]3c(C)c2cc1OC)OCO5 [Compound 2c, 8-Methyl-3,4-methylenedioxy-10,11-dimethoxydibenzo[a,g]quinolizinium acetosulfate]	10		10	5.70	4.39			
COc1cc([C@@H]2c3cc4c(cc3[C@@H](O[C@@H]3O[C@@H]5CO[C@@H](c6cccs6)O[C@H]5[C@H](O)[C@H]3O)[C@H]3COC(=O)[C@H]23)OCO4)cc(OC)c1O [VM-26, reference compound]	>1000		1	6.52	6.30			
COc1cc2cc3[n+](cc2cc1OC)CCc1c-3ccc2c1OCO2.[Cl-] [Compound 8c, 5,6-Dihydro-3,4-methylenedioxy-10,11-dimethoxydibenzo[a,g]quinolizinium chloride]	1	0.27 µM and 0.1 µg/mL	50	5.09	4.57			

Now from value to compound, other results behind:

Topo I-mediated DNA cleavage (REC, Relative Effective Concentration) (human topoisomerase I)	EC (total cleavage) (human topoisomerase I; read-out: concentration giving total cleavage of DNA in the presence of topoisomerase I)	Compound	Topo II-mediated DNA cleavage (REC, Relative Effective Concentration) [1]	pIC50 [2, 4]	pIC50 [3, 5]	cytotoxicity against RPMI 8402 cells (in words) [2]	pIC50 ([2]; rpmi 8402 cells, 96 h)	pIC50 ([3]; cpt-k5 cells, 96 h)
1000		6,7-Dimethoxy-1,2-dimethyl-3-(3, 4-methylenedioxyphenyl)isoquinolinium methosulfate [Compound 14b]	1000			appreciable cytotoxicity	5.17	4.96
1000		COc1cc2cc(-c3ccc4c(c3)OCO4)nc(C)c2cc1OC [Compound 12b, 6,7-Dimethoxy-1-methyl-3-(3,4-methylenedioxyphenyl)isoquinoline]	>1000	4.66	4.51			
>1000		6,7-Dimethoxy-1, 2-dimethyl-3-(3, 4-dimethoxyphenyl)isoquinolinium methosulfate [Compound 14a]	>1000				4.37	4.41
>1000		8-Methyl-3,4,10,11-tetramethoxydibenzo[a,g]quinolizinium acetosulfate [Compound 2b]	100				6.40	5.70
>1000		COc1ccc(-c2cc3cc(OC)c(OC)cc3c(C)n2)cc1OC [Compound 12a, 6,7-Dimethoxy-1-methyl-3-(3,4-dimethoxyphenyl)isoquinoline]		4.89	4.62			
